Results from article PMC5430599, “Antiplasmodial dihetarylthioethers target the coenzyme A synthesis pathway in Plasmodium falciparum erythrocytic stages” (Malaria Journal, 2017).
Like-named read-outs stand apart in the source and are kept apart here.

What was measured:
[1] = system: asexual erythrocytic stages of transgenic NF54-luc P. falciparum; experiment: Luciferase-based viability screening for anti-malarial activity; assay type: cell-based, Plasmodium falciparum; conditions: for inhibition at 3 µM: read-out: % inhibition, PfNF54-Luc at 3 µM, 3 µM, 48 h; for inhibition at 3 µM / % inhibition, PfNF54-Luc at 3 µM: >50% inhibition of viability rated active; for % inhibition, PfNF54-Luc at 3 µM: 48 h
Description: Asexual erythrocytic stages of transgenic NF54-luc P. falciparum were used for the luciferase-based viability assay. These parasites constitutively express high levels of luciferase. The parasites were cultured as described previously. Parasite culture with parasitaemia of 0.5–1% was dispensed in triplicate into white 96-well flat-bottom plates (each well contains 250 µL) (NUNC, Roskilde, […], 90% N2, 5% CO2, and 5% O2). 0.01% DMSO was included in the untreated infected RBC cultures as negative control, since the compounds stock initially was diluted in DMSO and each treatment well also contained 0.01% DMSO. Subsequently, 100 µL RPMI1640 media was removed from each well and a 100 µL volume of the Bright-Glo® substrate solution added to each well. The resultant cleavage product of the reaction, light, was measured using a FLUOROSKAN FL luminometer (Thermo), to ascertain viable parasites. Untreated cultures were used as negative controls and to calculate the inhibition rate (0% inhibition of parasite growth). Blasticidin (Sigma-Aldrich, St. Louis, MO, USA), used for selection of transfected parasites, was included as a positive control on each plate and gave >90% inhibition of parasite growth at concentration 2 µg/mL. Compounds with >50% inhibition of viability were rated as actives. Experiments were performed in triplicate and were repeated at least twice.

[2] = system: Plasmodium falciparum parasites (3D7 strain); experiment: Coenzyme A rescue assay (imaging-based growth inhibition, with or without 0.8 mM CoA); assay type: cell-based; conditions: for IC50: Plasmodium falciparum, 3D7, 72 h; for rescue by coenzyme A supplementation (in words): 0.8 mM CoA; for IC50-ratio (CoA/solvent): IC50 with 0.8 mM CoA / IC50 solvent, threshold 5× significant; for IC50 shift with CoA supplementation: IC50 CoA / IC50 solvent
Description: Plasmodium falciparum parasites (3D7 strain) were grown in RPMI 1640 supplemented with 25 mM HEPES, 5 mg/mL Albumax II, and 0.37 mM hypoxanthine. Parasites were subjected to two rounds of sorbitol synchronization before undergoing compound treatment. Ring stage parasites were exposed to the experimental compounds alone, or in combination with 0.8 mM coenzyme A (CoA) in 384-wells imaging microplates (CellCarrier, PerkinElmer), as previously described. […] Puromycin 5 µM and untreated solvent were used as in-plate positive and negative controls, respectively. Samples were dissolved in DMSO to a final assay DMSO concentration of 0.4%. […] All sample and control wells contained the same final amounts of solvents. Plates were incubated for 72 h at 90% N2, 5% CO2, 5% O2, then parasites were stained with 2-(4-amidinophenyl)-1H-indole-6-carboxamidine (DAPI), and imaged using an Opera QEHS micro-plate confocal imaging system (PerkinElmer) with 405 nm excitation and 450/50 emission filter, using a 20× water immersion objective. Images were analysed as previously described, to obtain normalized % inhibition data, which were then used to calculate IC50 values, through a four parameter logistic curve fitting in GraphPad Prism v.6. The experiment was carried out in two independent biological replicates, each consisting of two technical replicates. Dose–response curves are illustrated in the Additional file 4.

[3] = system: human embryonic kidney (HEK-293) cells; experiment: Cytotoxicity assay: human HEK-293 cell line (resazurin); assay type: cell-based; conditions: Homo sapiens, read-out: IC50 [µM], HEK-293
Description: Cytotoxicity against human embryonic kidney (HEK-293) cells was assessed as previously described. […] Cells were detached using Accutase treatment, then seeded into black clear-bottom 384-wells fluorescence microplates (Greiner), at a cell density of 44,000 cells/mL in 45 µL/well, using a Benchtop liquid dispenser (Thermo Fisher Multidrop). After seeding, the cells were brought back to the incubator and allowed to settle and reattach overnight. […] Plates were incubated at the standard condition above for 72 h. At the end of the incubation the medium in each well was replaced with 1 mM resazurin, and the plates were read using a multilabel microplate reader (PerkinElmer Envision) at 530 nm excitation and 595 nm emission wavelengths after a further 6 h incubation. Inhibition data was generated using Office Excel 2013 (Microsoft). IC50 values were calculated by fitting a four-parameter nonlinear regression model using Prism v.6.0 (Graphpad Software Inc., La Jolla, CA, USA).

Plasmodium falciparum = system: Plasmodium falciparum; parameters: method as in PMID 27855724; conditions: addition of pantethine; cited from earlier work
Plasmodium berghei = system: Plasmodium berghei; parameters: method as in PMID 24900512; conditions: 50 mg/kg subcutaneously over 4 days; cited from earlier work
[4] = Plasmodium falciparum, NF54, 48 h
[5] = 0.8 mM CoA (rescue), 72 h, read-out: IC50 [µM], Pf3D7 + 0.8 mM CoA
[6] = no CoA (solvent, non-rescue), 72 h, read-out: IC50 [µM], Pf3D7 + solvent

For `CCN(CC)S(=O)(=O)c1ccc(-c2nnc(Sc3ncnc4sccc34)o2)cc1` [Compound 3d], which inhibition at 3 µM [1, 4] is on record?
The inhibition at 3 µM was -0.6 ± 5.4%.

Which inhibition at 3 µM [1, 4] does the source give for `N#Cc1nccnc1Sc1nnc(-c2ccco2)o1` [Compound 6c] here?
The inhibition at 3 µM was 0.98 ± 1.52%.

For `c1cncc(-c2nnc(Sc3ncnc4sccc34)o2)c1` [Compound 3i], which inhibition at 3 µM [1, 4] is on record?
Its inhibition at 3 µM is -5.5 ± 3.8%.

With `CC(C)(C)OC(=O)NCc1nnc(Sc2ncnc3sccc23)o1` [Compound 3o] as the compound, how does the inhibition at 3 µM [1, 4] read?
Its inhibition at 3 µM is 2.28 ± 3.31%.

With `Fc1ccc(-c2nnc(Sc3ncnc4sccc34)o2)cc1` [Compound 3m] as the compound, how does the inhibition at 3 µM [1, 4] read?
The inhibition at 3 µM was -8.3 ± 4.1%.

Which inhibition at 3 µM [1, 4] does the source give for `c1coc(-c2nnc(Sc3ncnc4[nH]cnc34)o2)c1` [Compound 6b] here?
The inhibition at 3 µM was 1.79 ± 2.53%.

Which inhibition at 30 µM ([1]; Plasmodium falciparum, NF54, 48 h, read-out: % inhibition, PfNF54-Luc at 30 µM, 30 µM, 48 h) does the source give for `COc1ccc(-c2nnc(Sc3ncnc4sccc34)o2)cc1` [Compound 3c] here?
The inhibition at 30 µM was under 50%.

Which “inhibition of parasite growth (positive control)” value ([1]; 2 µg/mL) does the source give for `CN(CC[C@H](N)CC(=O)N[C@H]1C=C[C@H](n2ccc(N)nc2=O)O[C@@H]1C(=O)O)C(=N)N` [BS, Blasticidin, reference compound] here?
The value was over 90%.

And the “% inhibition, PfNF54-Luc at 3 µM” value [1]?
Its value is 99.3 ± 0.7%.

Which inhibition at 3 µM [1, 4] does the source give for `CC(C)(C)c1nnc(Sc2ncnc3sccc23)o1` [Compound 3p] here?
The inhibition at 3 µM was -14.6 ± 12.9%.

Which inhibition at 3 µM [1, 4] does the source give for `Cc1ccc(-c2nnc(Sc3ncnc4sccc34)o2)cc1` [Compound 3j] here?
The inhibition at 3 µM was -11 ± 6.7%.

For `Clc1ccc2[nH]c(Sc3ncnc4sccc34)nc2c1` [Compound 8i], which “% inhibition, PfNF54-Luc at 3 µM” value [1] is on record?
The value was “inactive”.

What about the inhibition at 3 µM [1, 4] of the same compound?
Its inhibition at 3 µM is -18.4 ± 10.6%.

For `Cc1ccc2nc(Sc3ncnc4sccc34)[nH]c2c1` [Compound 8h], which “% inhibition, PfNF54-Luc at 3 µM” value [1] is on record?
The value was “inactive”.

What about the inhibition at 3 µM [1, 4] of the same compound?
Its inhibition at 3 µM is -1.9 ± 5.3%.

With `c1coc(-c2nc(Sc3ncnc4sccc34)n[nH]2)c1` [Compound 8a] as the compound, how does the IC50 [2, 5] read?
Its IC50 is 16.1 ± 2.2 µM.

What about the IC50 [2, 6] of the same compound?
Its IC50 is 10.5 ± 1.1 µM.

And the IC50 ([3]; HEK293, cytotoxicity, 72 h)?
The IC50 was over 40 µM.

What about the “% inhibition, PfNF54-Luc at 3 µM” value [1] of the same compound?
The value was 33.2 ± 6.8%.

What about the inhibition at 3 µM [1, 4] of the same compound?
Its inhibition at 3 µM is 33%.

What does the source list for `CCN(CC)CCCC(C)Nc1ccnc2cc(Cl)ccc12` (stereo not shown) [Chloroqu, Chloroquine, reference compound]?
rescue by coenzyme A supplementation (in words) [2]: not rescued; IC50-ratio (CoA/solvent) [2]: 1.39; IC50 ([2]; read-out: IC50 [µM], Pf3D7 + 0.8 mM CoA): 0.0271 ± 0.0094 µM; IC50 ([2]; read-out: IC50 [µM], Pf3D7 + solvent): 0.0195 ± 0.0034 µM; IC50 ([3]; HEK293, 72 h): > 40 µM

Which “% inhibition, PfNF54-Luc at 3 µM” value [1] does the source give for `COc1ccc2[nH]c(Sc3ncnc4sccc34)nc2c1` [Compound 8j] here?
The value was “inactive”.

What about the inhibition at 3 µM [1, 4] of the same compound?
The inhibition at 3 µM was -36.3 ± 10.6%.

For `Cn1cnnc1Sc1ncnc2sccc12` [Compound 8b], which “rescue by coenzyme A supplementation (in words)” value (from here on “rescue … (in words)”) [2] is on record?
The value was “significantly rescued”.

And the “IC50 shift with CoA supplementation” value [2]?
The value was “sevenfold”.

What about the “IC50-ratio (CoA/solvent)” value [2] of the same compound?
The value was 7.39.

What about the IC50 [2, 5] of the same compound?
Its IC50 is about 40 µM.

What about the IC50 [2, 6] of the same compound?
Its IC50 is 6.4 ± 4.3 µM.

And the IC50 ([3]; HEK293, cytotoxicity, 72 h)?
The IC50 was over 40 µM.

And the “% inhibition, PfNF54-Luc at 3 µM” value [1]?
The value was “inactive”.

What about the inhibition at 3 µM [1, 4] of the same compound?
The inhibition at 3 µM was 4.7 ± 2.6%.

With `C[C@@H]1CC[C@H]2[C@@H](C)C(=O)O[C@@H]3O[C@@]4(C)CC[C@@H]1[C@]32OO4` [Artemis, artemisinin, reference compound] as the compound, how does the “rescue … (in words)” value [2] read?
The value was “not rescued”.

And the IC50 [2, 5]?
Its IC50 is 0.0049 ± 0.0011 µM.

What about the IC50 [2, 6] of the same compound?
Its IC50 is 0.00337 ± 0.00065 µM.

Which inhibition at 3 µM [1, 4] does the source give for `NCc1nnc(Sc2ncnc3sccc23)o1` [Compound 3s] here?
The inhibition at 3 µM was -2.8 ± 16.6%.

For `Cc1csc(Sc2ncnc3sccc23)n1` [Amb180780, reference compound], which “rescue of activity by pantethine, dephospho CoA and CoA” value (Plasmodium falciparum) is on record?
The value was “more than 75%”.

What about the “rescue … (in words)” value [2] of the same compound?
Its value is “rescued”.

And the “IC50 shift with CoA supplementation” value [2]?
Its value is over 13 fold.

What about the “IC50-ratio (CoA/solvent)” value [2] of the same compound?
Its value is 40.8.

And the IC50 [2, 5]?
The IC50 was 1.51 ± 0.19 µM.

What about the IC50 [2, 6] of the same compound?
The IC50 was 0.037 ± 0.0017 µM.

And the IC50 ([3]; HEK293, cytotoxicity, 72 h)?
The IC50 was over 40 µM.

Which inhibition at 3 µM [1, 4] does the source give for `Clc1ccccc1-c1nnc(Sc2ncnc3sccc23)o1` [Compound 3f] here?
The inhibition at 3 µM was 1.5 ± 4.3%.

Which inhibition at 3 µM [1, 4] does the source give for `CC(C)(C)OC(=O)N1CCC(c2nnc(Sc3ncnc4sccc34)o2)CC1` [Compound 3n] here?
Its inhibition at 3 µM is -0.82 ± 3.11%.

Which inhibition at 3 µM [1, 4] does the source give for `O=S(=O)(c1ccc(-c2nnc(Sc3ncnc4sccc34)o2)cc1)N1CCOCC1` [Compound 3l] here?
The inhibition at 3 µM was 24.3 ± 3.2%.

Which inhibition at 3 µM [1, 4] does the source give for `O=S(=O)(c1ccc(-c2nnc(Sc3ncnc4sccc34)o2)cc1)N1CCCCC1` [Compound 3e] here?
The inhibition at 3 µM was -7.3 ± 6.9%.

For `CCc1ccc(-c2nnc(Sc3ncnc4sccc34)o2)cc1` [Compound 3k], which inhibition at 3 µM [1, 4] is on record?
The inhibition at 3 µM was -7 ± 1.8%.

With `CC1CCc2sc(-c3nnc(Sc4ncnc5sccc45)o3)cc2C1` (stereo not shown) [Compound 3h] as the compound, how does the inhibition at 3 µM [1, 4] read?
The inhibition at 3 µM was -103 ± 4.4%.

What does the source list for `c1ccn2c(Sc3ncnc4sccc34)nnc2c1` [compound 33]?
drop in parasitaemia (Plasmodium berghei): 34%; life-span of infected animals (Plasmodium berghei): failed to prolong the life-span

For `COc1ccc(C[C@H](N)C(=O)N[C@H]2[C@@H](O)[C@H](n3cnc4c(N(C)C)ncnc43)O[C@@H]2CO)cc1` [Puromyc, puromycin, reference compound], which “rescue … (in words)” value [2] is on record?
Its value is “not rescued”.

And the “IC50-ratio (CoA/solvent)” value [2]?
Its value is 2.78.

And the IC50 [2, 5]?
The IC50 was 0.0939 ± 0.0016 µM.

And the IC50 ([3]; HEK293, cytotoxicity, 72 h)?
The IC50 was 0.36 µM.

For `Brc1ccccc1-c1nnc(Sc2ncnc3sccc23)o1` [Compound 3g], which inhibition at 3 µM [1, 4] is on record?
Its inhibition at 3 µM is -13.1 ± 9.1%.

For `c1coc(-c2nnc(Sc3ncnc4[nH]ccc34)o2)c1` [Compound 6a], which inhibition at 3 µM [1, 4] is on record?
The inhibition at 3 µM was -24.8 ± 13.6%.

For `CC(C)(CO)C(O)C(=O)NCCCO` (stereo not shown) [Pantoth, panthenol, reference compound], which “rescue … (in words)” value [2] is on record?
The value was “rescued”.

What about the IC50 [2, 6] of the same compound?
The IC50 was 752 ± 82 µM.

For `OCc1nnc(Sc2ncnc3sccc23)o1` [Compound 3q], which inhibition at 3 µM [1, 4] is on record?
The inhibition at 3 µM was -12.3 ± 2.2%.

Which inhibition at 3 µM [1, 4] does the source give for `c1nc(Sc2nnc(C3CCNCC3)o2)c2ccsc2n1` [Compound 3r] here?
The inhibition at 3 µM was 7.7 ± 1.8%.
